The nature of data set [1]: Metabolic stability with human liver microsomes. In kind it is in vitro ADME. The conditions noted are these: human, microsomes; for half-life at 1 μM: pH 7.6.
Data set [2] can be described thus: Aqueous solubility. In kind it is physicochemical. The conditions noted are these: McIlvaine buffer pH 6.8 with 2.5% DMSO, pH 6.8, aqueous buffer, kinetic from dmso stock, McIlvaine buffer pH 6.8, 2.5% DMSO, 24 h shaking. As for the experimental part:
Assay for Determination of Aqueous Solubility […] After 24 h of shaking, the solutions or suspensions are filtered and analyzed by LC-UV. The amount dissolved in buffer is compared to the amount dissolved in the acetonitrile/water (1/1) solution.

Data set [3] addresses cytochrome P450 2C19 (Homo sapiens (Human), UniProt P33261). Put plainly: Cytochrome P450 2C19 inhibition. It is filed as in vitro ADME. The conditions noted are these: human liver microsomes.
Data set [4] concerns the target cytochrome P450 2C8 (Homo sapiens (Human), UniProt P10632). Nature of the data set: Cytochrome P450 2C8 inhibition. In kind it is in vitro ADME. The conditions noted are these: human liver microsomes. (In general: Liver microsomes are a subcellular fraction often used to study metabolism.)
Data set [5] concerns human hepatocytes. Put plainly: Metabolic stability with human hepatocytes. It is filed as in vitro ADME. The settings on record: for CL (predicted human hepatic in vivo blood clearance): human hepatocyte suspension, 1 μM test compound, scaled with well stirred model. The procedure:
Assay for the Determination of Metabolic Stability with Human Hepatocytes The metabolic degradation of the test compound is assayed in a human hepatocyte suspension. Human hepatocytes (typically cryopreserved) are incubated in an appropriate buffer system (e.g. […] Samples are transferred into acetonitrile and pelleted by centrifugation (5 min) The supernatant is transferred to a new 96-deepwell plate, evaporated under nitrogen and resuspended. The decline of parent compound is analyzed by LC-MS/MS.

Data set [6] in a line: Drug transport across human Caco-2 cells. It is filed as in vitro ADME. The conditions noted are these: human; for Papp A→B at 10 µM / Papp B→A at 10 µM: Caco-2, pH 7.2, Caco-2 monolayers, pH 7.2, 37° C.; for Papp A→B at 10 µM: apical-to-basal, read-out: PEAB; for Papp B→A at 10 µM: basal-to-apical, read-out: PEBA.
The test system of data set [7] is Caco-2 cells. Nature of the data set: Drug transport across human Caco-2 cells. It is filed as in vitro ADME. The conditions noted are these: Caco-2, pH 7.2, 37° C.; compared to prior-art cyclic amide derivative.
The target of data set [8] is cytochrome P450 2C9 (Homo sapiens (Human), UniProt P11712). Nature of the data set: Cytochrome P450 2C9 inhibition. The conditions noted are these: human liver microsomes. In kind it is in vitro ADME.
The target of data set [9] is Human neutrophil elastase (Homo sapiens (Human), UniProt P08246). Nature of the data set: Human Neutrophil Elastase Assay. It is filed as biochemical. The settings on record: human neutrophil elastase, substrate MeOSuc-Ala-Ala-Pro-Val-AMC 250 μM, pH 7.5; read-out: IC50.
Data set [10] has as its target neutrophil elastase in human plasma (Homo sapiens (Human), UniProt P08246). Nature of the data set: Neutrophil elastase inhibitory activity in human plasma (zymosan-stimulated blood). In kind it is biochemical. The settings on record: neutrophil elastase enriched human plasma from zymosan-stimulated blood; read-out: EC50.
[11] abbreviates: compared to example 8A disclosed in WO 2005/0828683.

≈ marks a conversion by molar mass, not a printed value.

Chain of cytochrome P450 2C8 (P10632 whole entry): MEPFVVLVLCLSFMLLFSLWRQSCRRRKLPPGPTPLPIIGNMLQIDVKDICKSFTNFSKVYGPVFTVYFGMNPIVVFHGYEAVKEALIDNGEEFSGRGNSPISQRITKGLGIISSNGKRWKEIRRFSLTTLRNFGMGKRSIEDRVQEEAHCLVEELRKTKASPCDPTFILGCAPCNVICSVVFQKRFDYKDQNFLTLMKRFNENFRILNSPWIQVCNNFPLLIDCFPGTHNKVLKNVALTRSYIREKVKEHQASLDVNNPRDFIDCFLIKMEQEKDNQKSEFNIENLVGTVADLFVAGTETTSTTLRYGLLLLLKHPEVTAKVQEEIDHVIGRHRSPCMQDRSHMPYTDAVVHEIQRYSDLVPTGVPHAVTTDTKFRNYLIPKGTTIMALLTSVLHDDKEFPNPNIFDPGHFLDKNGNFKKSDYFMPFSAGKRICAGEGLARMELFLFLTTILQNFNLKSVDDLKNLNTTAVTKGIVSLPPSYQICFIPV
Chain of cytochrome P450 2C19 (P33261 whole entry): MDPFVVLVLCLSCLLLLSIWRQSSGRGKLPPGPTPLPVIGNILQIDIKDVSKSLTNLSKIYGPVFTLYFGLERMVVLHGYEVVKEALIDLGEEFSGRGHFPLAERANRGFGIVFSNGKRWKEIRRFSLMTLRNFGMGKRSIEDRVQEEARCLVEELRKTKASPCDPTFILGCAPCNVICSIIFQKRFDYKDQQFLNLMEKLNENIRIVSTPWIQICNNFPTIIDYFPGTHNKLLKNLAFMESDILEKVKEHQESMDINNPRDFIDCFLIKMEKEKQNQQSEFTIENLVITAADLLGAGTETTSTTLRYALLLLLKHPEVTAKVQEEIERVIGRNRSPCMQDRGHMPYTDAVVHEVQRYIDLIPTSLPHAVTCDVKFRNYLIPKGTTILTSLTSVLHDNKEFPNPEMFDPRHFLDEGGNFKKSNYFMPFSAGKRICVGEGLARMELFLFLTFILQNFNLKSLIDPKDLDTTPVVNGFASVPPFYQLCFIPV
Chain of cytochrome P450 2C9 (P11712 whole entry): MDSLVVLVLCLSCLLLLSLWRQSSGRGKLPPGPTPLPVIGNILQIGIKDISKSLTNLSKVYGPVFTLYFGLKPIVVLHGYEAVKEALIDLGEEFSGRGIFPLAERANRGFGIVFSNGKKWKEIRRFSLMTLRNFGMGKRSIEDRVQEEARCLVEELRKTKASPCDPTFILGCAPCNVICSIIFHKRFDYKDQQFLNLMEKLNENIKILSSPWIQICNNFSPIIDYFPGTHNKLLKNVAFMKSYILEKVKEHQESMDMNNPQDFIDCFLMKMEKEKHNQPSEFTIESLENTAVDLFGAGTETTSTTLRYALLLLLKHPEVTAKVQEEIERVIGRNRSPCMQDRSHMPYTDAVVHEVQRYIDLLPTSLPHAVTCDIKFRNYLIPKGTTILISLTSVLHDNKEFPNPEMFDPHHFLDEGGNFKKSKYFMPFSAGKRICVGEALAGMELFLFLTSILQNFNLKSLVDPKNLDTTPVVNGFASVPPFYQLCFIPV
Chain of neutrophil elastase in human plasma (P08246 30-247): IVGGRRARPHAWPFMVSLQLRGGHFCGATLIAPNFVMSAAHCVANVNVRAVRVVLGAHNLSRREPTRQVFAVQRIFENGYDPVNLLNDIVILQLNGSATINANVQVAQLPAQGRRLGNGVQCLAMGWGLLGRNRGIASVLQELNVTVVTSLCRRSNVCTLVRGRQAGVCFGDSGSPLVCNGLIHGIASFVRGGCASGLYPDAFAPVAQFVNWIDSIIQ
Chain of Human neutrophil elastase (P08246 30-247): as above

By half-life is commonly meant how long it takes for the measured level to halve. Low readings indicate rapid decline, high ones slow decline. The term solubility denotes the concentration that dissolves in the medium under given conditions. `N#Cc1ccc([C@H]2NC(=O)N(c3cccc(C(F)(F)F)c3)C3=C2C(=O)CC3)cc1` [Example 1A, (R)-4-(2,5-Dioxo-1-(3-(trifluoromethyl)phenyl)-2,3,4,5,6,7-hexahydro-1H-cyclopenta[d]pyrimidin-4-yl)benzonitrile]: in data set [1], the “half-life (t1/2 INVITRO), metabolic stability” value is given as “improved half life” and the half-life at 1 μM was over 2.17 h. The compound further yielded a solubility at 24 h in data set [2] of 74 µg/mL (≈ 186 µM). Further, in data set [3] (compared to example 8A in WO 2005/0828683), the CYP2C19 inhibition entry was “reduced CYP2C19 inhibition”. Besides, the CYP2C8 inhibition entry in [4] (setting [11]) is recorded as “reduced CYP2C8 inhibition”. For the same compound, the “CL (predicted human hepatic in vivo blood clearance)” value in data set [5] is 6 mL/min/kg. In data set [5] (human hepatocytes, compared to example 8A disclosed in WO 2005/0828683), the “predicted human hepatic in vivo blood clearance (CL)” value is reported as “reduced clearance”. For the same compound, in [6], the Papp A→B at 10 µM stood at 51 ×10⁻⁶ cm/s and the Papp B→A at 10 µM is 76.4 ×10⁻⁶ cm/s. Further, the “AB permeability (PEAB)” value in data set [7] is given as “improved AB permeability”. Also, in [8] (setting [11]), the CYP2C9 inhibition entry is recorded as “reduced CYP2C9 inhibition”.
In general, IC50 refers to the concentration needed to halve the response being measured. One may read the EC50 as the concentration that produces a half-maximal response. As a reminder, the efflux ratio is the permeability from basolateral to apical divided by that in the opposite direction, in the common usage. With `CS(=O)(=O)c1cc(C#N)ccc1[C@H]1NC(=O)N(c2cccc(C(F)(F)F)c2)C2=C1C(=O)CC2` [Example 10A, (S)-4-(2,5-Dioxo-1-(3-(trifluoromethyl)phenyl)-2,3,4,5,6,7-hexahydro-1H-cyclopenta[d]pyrimidin-4-yl)-3-(methylsulfonyl)benzonitrile], the half-life at 1 μM in data set [1] is over 2.17 h. This compound also yielded a solubility at 24 h in data set [2] of 84.5 µg/mL (≈ 178 µM). For the same compound, the IC50 is 39 µM in data set [3] ((S)-Mephenytoin hydroxylation, read-out: CYP2C19 IC50); 0.0026 µM in data set [9]; over 50 µM in data set [4] (Amodiaquine deethylation, read-out: CYP2C8 IC50); over 50 µM in [8] (Diclofenac hydroxylation, read-out: CYP2C9 IC50). Moreover, in data set [10], the EC50 is 0.001 µM. Also, the “CL (predicted human hepatic in vivo blood clearance)” value in data set [5] is 0 mL/min/kg. In addition, in [6], the Papp A→B at 10 µM came out at 4.93 ×10⁻⁶ cm/s. The Papp B→A at 10 µM in data set [6] came out at 57.4 ×10⁻⁶ cm/s. In [6] (Caco-2, pH 7.2, PEBA/PEAB, Caco-2), the efflux ratio at 10 μM stood at 14.5. Moreover, in [7], the “AB permeability (PEAB)” value is listed as “improved AB permeability”.

The values are drawn from US9290459B1, “Substituted bicyclic dihydropyrimidinones and their use as inhibitors of neutrophil elastase activity” (Boehringer Ingelheim International GmbH, priority 2013, dated 2016).
